Experiment [1] relates to phospho-p38 MAPK in HEK293T cells. The experiment is described as follows: p38 MAPK phosphorylation, western blotting, HEK293T. The class given is cell-based, human. The conditions noted are these: anisomycin alone. The protocol: (§1) HSP90 was used as loading control. The blots are representative of at least three biological replicates.
(§2) We next evaluated the effects of our inhibitors on the phosphorylation activity and expression of MEK1/2, MEK3/6, and MEK7. […] We also evaluated the effects on p42/44 MAPK (ERK1/2), which functions downstream of MEK1/2.
(§3) Whole cell extracts of cultured cells were prepared in radioimmunoprecipitation (RIPA) lysis buffer supplemented with phosphatase and protease inhibitors (Calbiochem). Protein concentration was determined by the bicinchoninic acid assay (BCA) (ThermoFisher) and separated by the SDS-PAGE technique. […] Secondary anti-mouse IgG (A4416) and anti-rabbit IgG (A6667) antibodies were purchased from Sigma-Aldrich and used a 1:4000 dilution. Images of blots were acquired on HyBlot ES Autoradiography Film (Thomas Scientific, Swedesboro, NJ, USA) following incubation with SuperSignal West Pico PLUS (ThermoFisher).
Background: A western blot detects proteins with antibodies after separation by electrophoresis.

In experiment [2] the test system is phospho-p42/44 MAPK in HEK293T cells. The experiment is described as follows: p42/44 MAPK (ERK1/2) phosphorylation, western blotting, HEK293T. Type of experiment: cell-based, human. The settings on record: anisomycin alone. The protocol:
as §1, §2, §3

The target of a further experiment is T1, MEK7 (Homo sapiens, UniProt O14733).
T1 construct: purchased Carna Biosciences
T1 sequence (O14733 1-419): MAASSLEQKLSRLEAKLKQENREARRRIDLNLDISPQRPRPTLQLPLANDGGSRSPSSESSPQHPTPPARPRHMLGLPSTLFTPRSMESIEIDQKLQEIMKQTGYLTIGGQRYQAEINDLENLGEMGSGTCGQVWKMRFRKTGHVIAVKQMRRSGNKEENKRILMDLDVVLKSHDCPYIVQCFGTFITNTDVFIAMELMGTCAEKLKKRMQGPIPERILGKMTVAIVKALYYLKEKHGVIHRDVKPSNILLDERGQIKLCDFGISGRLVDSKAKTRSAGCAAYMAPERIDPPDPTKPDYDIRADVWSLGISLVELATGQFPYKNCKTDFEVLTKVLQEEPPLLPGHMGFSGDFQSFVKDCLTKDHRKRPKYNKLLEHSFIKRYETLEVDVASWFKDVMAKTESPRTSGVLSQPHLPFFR
The experiment can be described thus: ADP-Glo kinase activity assay, MEK7. The class given is biochemical. The protocol: The compounds were then evaluated both in vitro and in a cellular system. When studying kinase inhibitors, there are a multitude of ways to evaluate selectivity across kinases.
(§4) Procedure for a 5 μL Kinase reaction using the ADP-Glo Kinase Assay Kit from Promega. Staurosporine was used as the positive control, and DMSO as the negative control. Activity of recombinant active full-length human MEK4 (Carna Biosciences) was measured using the ADP-Glo assay with recombinant full-length human p38α (MAPK14). Kinase reactions with MEK7 (Carna Biosciences) were done at the same concentration and amounts with recombinant full-length human p38α (MAPK14).
(§5) For each well, 4 ng of MEK4 and 600 ng of p38α in Kinase buffer (CST) were used, and 1 μL of this mixture was dispensed per well.
(§6) Inhibitor was prepared in a DMSO solution. A dose response dilution was done in a 384-well Echo transfer plate. […] This mixture was allowed to incubate for 30 minutes at room temperature.
(§7) Using a Mantis, 1 μL, of an 8 μM ATP solution was added to each well, and the plate was allowed to incubate for another 1 hour at room temperature. […] All experiments were done in triplicate on the plate, and at least in one separate technical duplicate.
(In general: ADP-Glo turns the ADP formed in a reaction into a luminescent signal.)

Experiment [3] addresses T2, recombinant active full-length human MEK4 (Homo sapiens, UniProt P45985).
T2 construct: recombinant active full-length human MEK4 (Carna Biosciences); purchased Carna Biosciences
T2 sequence (P45985 1-399): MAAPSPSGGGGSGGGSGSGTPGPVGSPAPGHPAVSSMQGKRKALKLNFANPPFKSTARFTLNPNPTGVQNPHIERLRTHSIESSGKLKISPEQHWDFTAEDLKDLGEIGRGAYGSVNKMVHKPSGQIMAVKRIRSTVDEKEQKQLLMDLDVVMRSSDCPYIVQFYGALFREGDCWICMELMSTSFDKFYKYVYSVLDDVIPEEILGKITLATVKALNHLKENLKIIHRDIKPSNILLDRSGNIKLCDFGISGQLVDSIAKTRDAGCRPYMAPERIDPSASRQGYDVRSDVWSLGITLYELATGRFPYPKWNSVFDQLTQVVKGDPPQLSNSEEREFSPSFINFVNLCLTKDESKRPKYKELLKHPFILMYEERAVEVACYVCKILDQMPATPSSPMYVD
The experiment is described as follows: ADP-Glo kinase activity assay, MEK4. The class given is biochemical. The protocol: as §4, §5, §6, §7

In experiment [4] the test system is phospho-p42/44 MAPK in MiaPaCa2 cells. The experiment is described as follows: p42/44 MAPK phosphorylation, western blotting, MiaPaCa2. The class given is cell-based, human. The conditions noted are these: MiaPaCa2, U0126 1 μM or 5 μM. The protocol:
(§8) The effects of different treatments on phospho-p42/44 MAPK and total p42/44 MAPK expression levels were determined by western blotting. HSP90 was used as loading control. The blots are representative of at least three biological replicates.
as §3

Experiment [5] relates to phospho-p42/44 MAPK in CD18 cells. The experiment is described as follows: p42/44 MAPK phosphorylation, western blotting, CD18. Type of experiment: cell-based, human. The conditions noted are these: CD18, U0126 1 μM or 5 μM, 1 hour pretreatment. How it is done: as §8, §3
[6] abbreviates: individual experiment, values in brackets, n=3, read-out: MEK7 IC50 of each experiment (IC50±SEM).
Where [7] appears, read: headline value per compound, read-out: IC50 (MEK4, ADP-Glo).
The mark [8] stands for this setting: individual experiment, values in brackets, n=3, read-out: IC50 of each experiment (IC50±SEM), MEK4.
[9] abbreviates: headline value per compound, read-out: MEK7 IC50.

SMILES strings stand for the structures. Several values for one entry are separate records, joined by “and”; a condition that tells them apart may be missing. Identical values can stand only once. Like-named read-outs stand apart in the source and are kept apart here. A value given as a limit tells only on which side of the number the result lay.

As to `COc1ccc(C[C@H]2NC[C@H](O)[C@H]2OC(C)=O)cc1` [anisomycin, reference compound], in experiment [1], the “effect of anisomycin on p38 MAPK phosphorylation” value is “did induce phosphorylation”. For the same molecule, in experiment [2], the “effect of anisomycin on p42/44 MAPK phosphorylation” value is on record as “decreases p42/44 MAPK phosphorylation”.
Broadly, the IC50 is the concentration at which inhibition is half-maximal. In the case of `CC(=O)c1ccc(NS(=O)(=O)c2cccc(-c3n[nH]c4cc(F)ccc34)c2)cc1` [Compound 15n, N-(4-acetylphenyl)-3-(6-fluoro-1H-indazol-3-yl)benzenesulfonamide], on MEK7 (setting [6]), the IC50 was 740 nM and 1300 nM and 1800 nM.
As for `NS(=O)(=O)c1ccc(-c2n[nH]c3cc(C(F)(F)F)ccc23)cc1` [Compound S5, 4-(6-(trifluoromethyl)-1H-indazol-3-yl)benzenesulfonanamide], the IC50 is 3700 nM in experiment [3] (setting [7]); 2200 nM and 5200 nM in experiment [3] (setting [8]).
Regarding `Fc1ccc2c(-c3ccc4c(c3)OCO4)nn(Cc3ccccc3)c2c1` [Compound S3, 3-(benzo[d][1,3]dioxol-5-yl)-1-benzyl-6-fluoro-1H-indazole], in experiment [3] (setting [7]), the IC50 was over 80000 nM.
With `CS(=O)(=O)c1ccc(NS(=O)(=O)c2cccc(-c3n[nH]c4cc(F)ccc34)c2)cc1` [Compound 15l], the IC50 is 920 nM at MEK7 (setting [9]); 590 nM and 780 nM and 1400 nM at MEK7 (setting [6]).
Consider `CCC(=O)Nc1ccccc1-c1n[nH]c2cc(F)ccc12` [Compound 8c, N-(2-(6-fluoro-1H-indazol-3-yl)phenyl)propionamide], for which the half-inhibitory concentration (IC50) in experiment [3] (setting [7]) was over 80000 nM.
For `O=S(=O)(Nc1cccc(-c2n[nH]c3cc(F)ccc23)c1)c1cccnc1` [Compound 12a, N-(3-(6-fluoro-1H-indazol-3-yl)phenyl)pyridine-3-sulfonamide], the IC50 on MEK7 (setting [9]) was 1300 nM; on MEK7 (setting [6]) it was 940 nM and 1600 nM.
On to `Cc1ccc2c(-c3ccc(S(N)(=O)=O)cc3)n[nH]c2c1` [Compound S4, 4-(6-methyl-1H-indazol-3-yl)benzenesulfonamide], for which the IC50 in experiment [3] (setting [7]) was 2700 nM; in experiment [3] (setting [8]) it was 1600 nM and 3700 nM.
As for `Nc1ccccc1-c1n[nH]c2cc(F)ccc12` [Compound 8b, 2-(6-fluoro-1H-indazol-3-yl)aniline], the IC50 in experiment [3] (setting [7]) was over 80000 nM.
For `O=S(=O)(NC1CC1)c1ccc(-c2n[nH]c3cc(F)ccc23)cc1` [Compound 13c, N-cyclopropyl-4-(6-fluoro-1H-indazol-3-yl)benzenesulfonamide], the IC50 at MEK7 (setting [9]) is 8700 nM; on MEK7 (setting [6]), 8100 nM and 9300 nM.
Consider `CC(C)Oc1ccc(NS(=O)(=O)c2cccc(-c3n[nH]c4cc(F)ccc34)c2)cc1` [Compound 15i, 3-(6-fluoro-1H-indazol-3-yl)-N-(4-isopropoxyphenyl)benzenesulfonamide], for which the half-inhibitory concentration (IC50) on MEK7 (setting [9]) is 2900 nM; on MEK7 (setting [6]) it was 1800 nM and 2200 nM and 4800 nM.
With `O=S(=O)(Nc1ccc(-c2n[nH]c3cc(F)ccc23)cc1)c1cccnc1` [Compound 11a, N-(4-(6-fluoro-1H-indazol-3-yl)phenyl)pyridine-3-sulfonamide], the IC50 was 2700 nM on MEK7 (setting [9]); 1900 nM and 3500 nM at MEK7 (setting [6]).
As to `Cn1nc(-c2ccc3c(c2)OCO3)c2ccc(F)cc21` [Compound S2, 3-(benzo[d][1,3]dioxol-5-yl)-6-fluoro-1-methyl-1H-indazole], the IC50 in experiment [3] (setting [7]) is over 80000 nM.
As to `O=S(=O)(Nc1ccccc1)c1cccc(-c2n[nH]c3cc(F)ccc23)c1` [Compound 14a, 3-(6-fluoro-1H-indazol-3-yl)-N-phenylbenzenesulfonamide], the IC50 is 840 nM at MEK7 (setting [9]); 400 nM and 610 nM and 1500 nM at MEK7 (setting [6]).
As for `C=CC(=O)Nc1ccccc1-c1n[nH]c2cc(F)ccc12` [Compound 8d, N-(2-(6-fluoro-1H-indazol-3-yl)phenyl)acrylamide], in experiment [3] (setting [7]), the IC50 is over 80000 nM.
Turning to `O=S(=O)(Nc1cccc(-c2n[nH]c3cc(F)ccc23)c1)C1CC1` [Compound 12c, N-(3-(6-fluoro-1H-indazol-3-yl)phenyl)cyclopropanesulfonamide], the IC50 on MEK7 (setting [9]) is 6400 nM; on MEK7 (setting [6]) it was 5600 nM and 7100 nM.
With `N#CC(=C(/N)Sc1ccccc1N)/C(C#N)=C(\N)Sc1ccccc1N` [Compound U0126, reference compound], the “effect of U0126 on p42/44 MAPK phosphorylation” value in experiment [4] is given as “decreased p42/44 MAPK phosphorylation”. The “effect of U0126 co-treatment on p42/44 MAPK phosphorylation increased by 15o and 10e” value in experiment [5] is reported as “suppressed”.
